Source: US9400281B2, “Method of screening of therapeutic agents for K-Ras mutant driven cancers” (PUSAN NATIONAL UNIVERSITY INDUSTRY-UNIVERSITY COOPERATION …, priority 2008, dated 2016)
Where two headings read alike, the source gives them in different places.

Tests used:
A549 and Capan-1 = test: Expression of median (culture media) p53 in A549 and Capan-1; type: cell-based; conditions: A549 and Capan-1, FIG. 15B
Method: (§1) Also, protease inhibitor (PMSF) and endocytosis inhibitor (Brefeldin A; BFA) were treated into A549 and Capan-1.

A549 = test: Location of recombinant p53 in A549 whole cell lysate (endocytosis); type: cell-based; conditions: A549, FIG. 15C
Method: First, A549 and MKN 45 cells were treated with recombinant p53, and their locations were identified. In comparison with control protein (His-lamin A) recovered from media, His-p53 was expressed in whole cell lysate of A549 (FIG. 15A). In addition, His-p53 was completely removed from MKN45 cells and culture media thereof (FIG. 15A).
as §1

[1] = tested on: K-Ras mutant cancer cell lines HCT116; test: Western blot of p53 and p21 expression in K-Ras mutant HCT116 cells; type: cell-based; conditions: Homo sapiens, HCT-116, HCT116, 10 μM
Method: To confirm whether the compounds prepared according to Examples 1 to 5 are effective for inhibiting SNAIL-p53 binding at cell level, the compound was treated into K-Ras mutant cancer cell lines HCT116 and results were analyzed by western blotting.
Oncogenic K-ras suppresses the p53 activity through SNAIL. In the cell line HCT116, SNAIL is always expressed by K-Ras mutation and bound to p53 to suppress normal activity of p53. If the K-Ras mutant cancer cell line HCT116 is treated with a compound for suppressing SNAIL-p53 binding, p53 is normally activated and more expressed, and target genes of p53 are induced.
First, western blotting was performed to detect expression of p53 and p21, which is a target gene of p53. All cell lines used in the present invention were obtained from ATCC, and maintained in 10% FBS-containing RPMI-1640 or DMEM. Protein was extracted with RIPA buffer solution and a membrane loaded with cell lysate through typical SDS-PAGE and gel transfer method was prepared. After blocking with 5% non-fat dry milk, the membrane was subjected into a typical western blot procedure with an antibody corresponding to each gene. Antibodies used herein were obtained from Cell signaling, SantaCruz. p53 activity was confirmed by expression of p21, which is a target gene of p53.

SNAIL-p53 binding = test: GST pull down assay of SNAIL-p53 binding (Experimental Example 2); parameters: species or system human; conditions: FIG. 21
Method: GST pull down assay is a method for identifying a binding degree of two proteins. GST-fused SNAIL protein and p53 recombinant protein were prepared and treated with the compound 5o or 7a to identify a binding degree of GST-SNAIL protein and p53 protein. […] If MDM2 is over-expressed, proteolysis of p53 is induced to suppress apoptosis occurring through target genes of p53, and an […] of cells is induced. Although MDM2 is a representative control factor of p53, MDM2 is not applied to K-Ras mutant disease or mutant p53 containing disease.
To perform GST pull down assay, three human SNAIL fragments (residues 1-90, 91-112, and 113-264) and p53 fragments (1-93 and 93-292) were expressed in E. coli as GST-fusion protein. Each of the fragments was loaded on to GSH-agarose, washed, and then eluted using a buffer containing 20 mM reduced glutathione. The eluted fractions were purified using an anionexchange chromatography (HitrapQ). The recombinant human p53 protein (residues 94-292) was expressed in E. coli using the vector pET28A which contains a hexa-histidine tag at the C terminus. The p53 protein including the hexa-histidine tag was purified using Ni-NTA affinity and a size exclusion chromatography (Superdex 200). To confirm the direct binding between p53 and SNAIL, agarose-bead conjugated GST or GST-SNAIL was incubated with His-p539 (histidine-p53) in PBS for 45 minutes at 4° C.. After washing with PBS, the precipitated protein was subjected into SDS-PAGE and western blotting.

[2] = tested on: HCT116 (K-Ras mutant cancer cell line); test: Cell death rate by tryphan blue cell counting, HCT116; type: cell-based
[3] = tested on: A549 (K-Ras mutant cancer cell line); test: Cell death rate by tryphan blue cell counting, A549; type: cell-based; conditions: A549 (A546 [sic])
Text: (§2) To confirm that the p53 induction of the compounds is related to K-Ras, A549 and HCT116, which are K-Ras mutant cancer cell lines, and MKN45, which is K-Ras wild type cancer cell line, were used.

[4] = tested on: MKN45 (K-Ras wild type cancer cell line); test: Cell death rate by tryphan blue cell counting, MKN45; type: cell-based
Text: as §2

MDA-MB 468 = test: Western blot of p21 expression in mutant p53 MDA-MB 468 cells; type: cell-based, human; conditions: for Expression ratio of gene to control, p21: DMSO control = 1.0
A549 cells = test: Xenograft in vivo: A549 cells injected intraperitoneally into athymic mouse
Method: Athymic mouse was obtained from Daehan Biolink Co. Ltd, and raised under temperature and light conditions (20-23° C., cycle of 12 hours light/12 hours darkness) and fed with sterile diet and water freely. After 2 weeks, 1×10^7 A549 cells were inoculated into the athymic mouse (n=21) by intraperitoneal injection. After 2 weeks, each group was divided into three subgroups and PBS, and 10 mg/kg or 20 mg/kg of the compound 5o were intraperitoneally injected once per week for 10 weeks, and vitality thereof was measured. This animal test was approved by the Animal Protection Committee of Pusan National University, and performed according to a guideline presented by the same.

[5] = tested on: SNAIL-mediated p53 suppression; test: Effect on SNAIL-mediated p53 reduction in transfected cells; type: cell-based; conditions: SNAIL (or K-Ras) transfected cells
Method: Also, the effect of the chemicals on SNAIL-mediated p53 suppression was checked. As shown in FIGS. 10E and 10F, p53 reduction by co-transfection of SNAIL was blocked by treatment of chemicals by #3 and #9.
The reduction of p53 by SNAIL was confirmed in real time (see FIG. 13D). Expression of p53 in culture-media was checked and within 2 hours, the expression of p53 in media was detected (see FIG. 13E). Moreover, p53 was detected in cytosol as a vesicle-like-structure in SNAIL or K-Ras transfected cells, and finally detected in an extracellular region (see FIG. 13F). Meanwhile, SNAIL was located in vesicle of cytosol with p53 (see FIG. 17A).
Since p53 is reduced by vesicle-like transport, p53 expression was checked by disrupting cytoskeleton-network by Nocodazole (Noc). […] Despite of cytoplasmic vesicle-like staining of p53 in Noc-treated cells, cellular morphology was changed differentially from control cells (see FIG. 14B). Noc blocked the p53 reduction (see FIG. 14C). Median p53 was disappeared by Noc-treatment, whereas p53 was accumulated in cytoplasm as vesicle (see FIGS. 14D and 14E). Aph/Noc blocked the reduction of p53, which was not achieved by LMB (FIGS. 14F and 14G).

SNAIL and p53 binding = test: ELISA system for screening SNAIL-p53 binding inhibitors; parameters: species or system human; conditions: His-p53 (93-292) and GST SNAIL
Method: To isolate SNAIL-p53 binding inhibitor, ELISA system was prepared. His-p53 (93-292) was immobilized on 96 well plates using 0.5 PFA. After drying and washing, the 96 well plates were incubated with GST SNAIL with 0.1 μM of chemicals (final concentration). After 1 hour incubation, the 96 well plates were washed with TBST and incubated with anti-GST-antibody (1: 10000, 45 min) and anti-mouse-IgG-HRP (1; 50000, 30 min). After washing twice, plates were incubated with a TMB solution and a stop solution. Measurement was performed using an ELISA plate reader.

K-Ras mutated cells = test: Cell death in K-Ras mutated cells; type: cell-based; conditions: FIG. 11D
[6] = 10 mg/kg i.p. once per week for 10 weeks
[7] = 20 mg/kg i.p. once per week for 10 weeks

For `C[C@H]1CCC/C=C/[C@@H]2C[C@H](O)C[C@H]2[C@H](O)/C=C/C(=O)O1` [Brefeldin A], the “Expression of median p53” value (A549 and Capan-1) was “increased expression of median p53” and the “Location of recombinant p53 in whole cell lysate” value (A549) was “blocked the location of recombinant p53”.

For `COc1ccc(OC)c2c1C(=O)C=C(SCCC(=O)O)C2=O` [Compound 5o, 3-(5,8-dimethoxy-1,4-dioxo-naphthalen-2-ylthio)propanoic acid], the fold induction at 10 µM ([1]; DMSO control = 1.0, read-out: Protein expression ratio of compound to control, p21) was 2.5, the fold induction at 10 µM ([1]; DMSO control = 1.0, read-out: Protein expression ratio of compound to control, p53) was 2.6 and the “Binding between GST-SNAIL protein and p53” value (SNAIL-p53 binding) was “substantially weak”. For the same molecule, the “Cancer cell death rate of compounds with respect to control” value (from here on “Cancer cell death rate of compounds”) ([2]; 5 μM) was 35 ± 3.2%, the “Cancer cell death rate of compounds” value ([2]; 20 μM) was 67 ± 2.5% and the “Cancer cell death rate of compounds” value ([3]; 5 μM) was 30 ± 4.5%. For the same molecule, the “Cancer cell death rate of compounds” value ([3]; 20 μM) was 62 ± 1.7%, the “Cancer cell death rate of compounds” value ([4]; 5 μM) was 10 ± 2.9% and the “Cancer cell death rate of compounds” value ([4]; 20 μM) was 18 ± 1.9%. The “Expression ratio of gene to control, p21” value (MDA-MB 468; MDA-MB 468, 5 μM) was 13.5, the “Expression ratio of gene to control, p21” value (MDA-MB 468; MDA-MB 468, 10 μM) was 25.9 and the “Expression ratio of gene to control, p21” value (MDA-MB 468; MDA-MB 468, 20 μM) was 31.3. The “Expression of p21 (target gene of p53)” value (MDA-MB 468; p53 mutant-type MDA-MB 468, FIG. 23) was “strong”, the “Tumor-caused death (survival)” value (A549 cells; 10 mg/kg and 20 mg/kg, 10 weeks, FIG. 24) was “tumor-caused death was prevented” and the “Tumor development at tumor site A.C” value (A549 cells; [6]) was 3 (regression). The “Tumor development at tumor site Liver” value (A549 cells; [6]) was 0, the “Tumor development at tumor site Lung” value (A549 cells; [6]) was 0 and the “Tumor development at tumor site Pancreas” value (A549 cells; [6]) was 0. For the same molecule, the “Tumor development at tumor site A.C” value (A549 cells; [7]) was 2 (regression), the “Tumor development at tumor site Liver” value (A549 cells; [7]) was 0 and the “Tumor development at tumor site Lung” value (A549 cells; [7]) was 0. For the same molecule, the “Tumor development at tumor site Pancreas” value (A549 cells; [7]) was 0, the “Tumor in treated group” value (A549 cells; FIG. 25) was “almost no tumor” and the “Overall anatomical abnormal finding according to weight loss or injection of the compound” value (A549 cells; FIG. 26) was “not observed”.

With `COC(=O)Nc1nc2ccc(C(=O)c3cccs3)cc2[nH]1` [Nocodazole] the “SNAIL-mediated p53 reduction” value [5] was “blocked the SNAIL or K-Ras mediated p53 reduction”.

In the case of `O=S(=O)(F)Cc1ccccc1` [PMSF], the “Expression of median p53” value (A549 and Capan-1) is reported as “increased expression of median p53”.

In the case of `O=c1c(O)c(-c2ccc(O)c(O)c2)oc2cc(O)cc(O)c12` [Quercetin], the “Inhibition of SNAIL and p53 binding” value (SNAIL and p53 binding) is reported as “identified as an inhibitor of SNAIL-p53 interaction”.

For `COc1cc(/C=C/C(=O)O)ccc1O` [ferulic acid], the Cell death (K-Ras mutated cells) was “evoked cell death”.

For `CCC(=C/[C@H](C)C/C=C/C(C)=C/[C@@H](C)C(=O)[C@@H](C)[C@H](O)[C@@H](C)C/C(C)=C/C(=O)O)/C=C/[C@@H]1OC(=O)C=C[C@@H]1C` [leptomycin B], the “SNAIL-mediated p53 reduction” value [5] was “did not block the SNAIL-mediated p53 reduction”.
